Measurements taken from ChEMBL document CHEMBL4840358, “Discovery of Modified Amidate (ProTide) Prodrugs of Tenofovir with Enhanced Antiviral Properties” (J Med Chem, 2021).
pEC50: −log10 of the molar value. Values after ≈ are worked out from the molar mass of the structure shown. Where a name gives a salt, the structure may show the parent alone.

Columns and labels:
[1] = system: Human immunodeficiency virus 1; assay: Antiviral activity against HIV-1 infected in MT4 cells assessed as reduction in virus-induced cytopathic effect preincubated for 1 hr followed by viral infection and measured after 5 days by XTT assay; type: functional, organism-based; settings: Human immunodeficiency virus 1, MT4
[2] = target: T1, Lysosomal protective protein (Homo sapiens) (UniProt P10619); assay: Substrate activity at cathepsin A (unknown origin) at 30 uM after 30 mins
T1 sequence (whole entry): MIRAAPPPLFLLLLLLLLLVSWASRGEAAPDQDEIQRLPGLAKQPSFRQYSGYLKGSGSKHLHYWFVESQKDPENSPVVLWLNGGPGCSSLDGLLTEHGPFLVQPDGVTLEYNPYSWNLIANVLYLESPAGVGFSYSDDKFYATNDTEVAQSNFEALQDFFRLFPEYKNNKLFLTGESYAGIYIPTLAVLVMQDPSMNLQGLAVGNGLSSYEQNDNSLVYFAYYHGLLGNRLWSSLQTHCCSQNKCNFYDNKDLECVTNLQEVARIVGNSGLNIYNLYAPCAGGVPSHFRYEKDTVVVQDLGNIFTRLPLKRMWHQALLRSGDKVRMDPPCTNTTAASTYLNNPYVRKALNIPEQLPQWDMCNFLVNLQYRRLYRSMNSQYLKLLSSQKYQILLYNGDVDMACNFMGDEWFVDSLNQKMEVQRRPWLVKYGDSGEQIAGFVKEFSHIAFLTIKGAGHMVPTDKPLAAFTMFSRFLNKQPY

[3] = Cytotoxicity against in human MT4 cells after 5 days by XTT assay; type: cell-based; settings: time 5 day
[4] = system: Hepatitis B virus; assay: Antiviral activity against HBV infected in human HepG2-hNTCP cells assessed as reduction in HBV DNA incubated for day 1 followed by compound washout and fresh compound addition on following day and day 3, 6 and 10 measured on day 14 post infection by qPCR analysis; type: functional, organism-based
[5] = Drug uptake in human CCRF-CEM cells assessed as released tenofovir level at 50 uM after 45 mins by ECHO-MS analysis; type: ADME, cell-based; settings: 0.75 h
[6] = Drug uptake in human CCRF-CEM cells assessed as intracellular intact prodrug level at 50 uM after 45 mins by ECHO-MS analysis; type: ADME, cell-based; settings: 0.75 h
[7] = Cytotoxicity against human HepG2-hNTCP cells incubated for 3 days by XTT assay; type: cell-based; settings: time 3 day
[8] = Selectivity index, ratio of CC50 for human MT-4 cells to EC50 for HIV-1 infected in MT-4 cells; type: toxicity, cell-based; settings: read-out: Ratio CC50/EC50
[9] = Stability of compound in pooled human hepatic microsomes assessed as compound remaining at 5 uM measured upto 30 mins in presence of NADPH by ECHO-MS analysis; type: ADME, Microsome; settings: pooled liver microsomes, read-out: Stability
[10] = Stability of compound in pooled human plasma assessed as compound remaining at 5 uM measured for 120 to 240 mins by ECHO-MS analysis; type: ADME, cell-free; settings: time 120-240 min, read-out: Stability
[11] = Chemical stability of compound in pH 4.5 citrate buffer at 25 uM after 24 hrs by HPLC analysis; type: physicochemical; settings: pH 4.5, 24 h
[12] = Drug metabolism in human liver microsomes assessed as formation of metabolite 1; type: ADME, Microsome
[13] = Chemical stability of compound in pH 10 NaOH-glycin buffer at 25 uM after 24 hrs by HPLC analysis; type: physicochemical; settings: pH 10, 24 h
[14] = Stability of compound in pooled human plasma assessed as half life at 5 uM measured for 120 to 240 mins by ECHO-MS analysis; type: ADME, cell-free; settings: time 120-240 min
[15] = Chemical stability of compound in pH 1.5 NaCl-HCl buffer at 25 uM after 24 hrs by HPLC analysis; type: physicochemical; settings: pH 1.5, 24 h
[16] = Solubility of compound in water at 25 uM after 24 hrs by HPLC analysis; type: physicochemical
[17] = system: Human immunodeficiency virus 1; assay: Antiviral activity against HIV-1; type: functional, organism-based
[18] = Drug metabolism assessed as M1 metabolite formation; type: ADME
[19] = Drug metabolism assessed as M11 metabolite formation; type: ADME
[20] = Drug metabolism assessed as M5 metabolite formation; type: ADME
[21] = Drug metabolism assessed as M9 metabolite formation; type: ADME
[22] = Drug metabolism assessed as M12 metabolite formation; type: ADME

## CC(C)OC(=O)[C@H](C)N[P@@](=O)(CO[C@H](C)Cn1cnc2c(N)ncnc21)Oc1ccc(C[C@H](NC(=O)CCc2ccccc2)C(=O)OC2CCCC2)cc1
[1]
  pEC50: 9.44
[2]
  Activity: 29.5 pmol/min/mg
[3]
  CC50 at 120 h: 11000 nM
[4]
  pEC50: 8.85
[5]
  Drug uptake: 27.89 pmol
[6]
  Drug uptake: 0.12 pmol
[7]
  CC50 at 72 h: > 50000 nM

## CC(C)OC(=O)[C@H](C)N[P@](=O)(CO[C@H](C)Cn1cnc2c(N)ncnc21)Oc1ccc(C[C@H](NC(=O)CCc2ccccc2)C(=O)OC2CCCC2)cc1
[1]
  pEC50: 11.00
[2]
  Activity: 26 pmol/min/mg
[3]
  CC50 at 120 h: 8800 nM
[8]
  selectivity ratio: 880000
[4]
  pEC50: 8.36
[5]
  Drug uptake: 64.26 pmol
[9]
  remaining at 0.5 h, 5 µM: 0.01%
[6]
  Drug uptake: 0.37 pmol
[10]
  remaining at 5 µM: 76%
[7]
  CC50 at 72 h: > 50000 nM

## CC(C)OC(=O)[C@H](C)N[P@](=O)(CO[C@H](C)Cn1cnc2c(N)ncnc21)Oc1ccc(C[C@H](NC(=O)OCc2ccccc2)C(=O)CC2CCCC2)cc1
[1]
  pEC50: 11.22
[2]
  Activity: 39.7 pmol/min/mg
[3]
  CC50 at 120 h: 9200 nM
[8]
  selectivity ratio: 1.53e+06
[4]
  pEC50: 8.55
[5]
  Drug uptake: 148.09 pmol
[9]
  remaining at 0.5 h, 5 µM: 0.04%
[6]
  Drug uptake: 102.36 pmol
[10]
  remaining at 5 µM: 88%
[7]
  CC50 at 72 h: > 50000 nM

## CC(C)OC(=O)[C@H](C)N[P@](=O)(CO[C@H](C)Cn1cnc2c(N)ncnc21)Oc1ccc(C[C@H](NC(=O)OCc2ccccc2)C(=O)OC2CCCC2)cc1 [listing 1 of 2 here]
[11]
  Stability: Stable
[12]
  Drug metabolism: Metabolite_Detected
[1]
  pEC50: 10.15
[3]
  CC50 at 120 h: 10000 nM
[8]
  selectivity ratio: 143000
[13]
  Stability: Unstable
[5]
  Drug uptake: 73.7 pmol
[14]
  half-life at 5 µM: 9.63 h
[9]
  remaining at 0.5 h, 5 µM: 0.01%
[6]
  Drug uptake: 0.19 pmol
[10]
  remaining at 5 µM: 75%
[15]
  Stability: Unstable
[16]
  solubility at 24 h, 25 µM: 53.5 µM (≈ 41 µg/mL)

## CC(C)OC(=O)[C@H](C)N[P@](=O)(CO[C@H](C)Cn1cnc2c(N)ncnc21)Oc1ccc(C[C@H](NC(=O)OCc2ccccc2)C(=O)OC2CCCC2)cc1 [listing 2 of 2 here]
[2]
  Activity: 33.6 pmol/min/mg

## CC(C)OC(=O)[C@H](C)N[P@](=O)(CO[C@H](C)Cn1cnc2c(N)ncnc21)Oc1ccc(C[C@H](NCCCc2ccccc2)C(=O)OC2CCCC2)cc1
[1]
  pEC50: 9.55
[3]
  CC50 at 120 h: 6000 nM
[8]
  selectivity ratio: 21400
[4]
  pEC50: 7.72
[7]
  CC50 at 72 h: > 50000 nM

## C[C@H](Cn1cnc2c(N)ncnc21)OCP(=O)(O)O [TENOFOVIR ANHYDROUS]
[8]
  selectivity ratio: 36
[17]
  pEC50: 5.30

## CC(C)OC(=O)[C@H](C)N[P@](=O)(CO[C@H](C)Cn1cnc2c(N)ncnc21)Oc1ccc(C[C@H](NC(=O)OCc2ccccc2)C(=O)OC2CCCC2)cc1.O=C(O)/C=C/C(=O)O
[16]
  solubility at 24 h, 25 µM: 104 µM

## CC(C)OC(=O)[C@H](C)N[P@](=O)(CO[C@H](C)Cn1cnc2c(N)ncnc21)Oc1ccc(C[C@H](NCCCc2ccccc2)C(=O)CC2CCCC2)cc1
[1]
  pEC50: 10.22
[2]
  Activity: 16.3 pmol/min/mg
[3]
  CC50 at 120 h: 48000 nM
[8]
  selectivity ratio: 800000
[5]
  Drug uptake: 304.5 pmol
[9]
  remaining at 0.5 h, 5 µM: 1%
[6]
  Drug uptake: 11.37 pmol
[10]
  remaining at 5 µM: 77%

## CC(C)OC(=O)[C@H](C)N[P@@](=O)(CO[C@H](C)Cn1cnc2c(N)ncnc21)Oc1ccc(C[C@H](NC(=O)OCc2ccccc2)C(=O)OC2CCCC2)cc1
[1]
  pEC50: 7.80
[2]
  Activity: 35.9 pmol/min/mg
[3]
  CC50 at 120 h: 17000 nM
[5]
  Drug uptake: 20.25 pmol
[14]
  half-life at 5 µM: 4.62 h
[9]
  remaining at 0.5 h, 5 µM: 0.01%
[6]
  Drug uptake: 0.22 pmol
[10]
  remaining at 5 µM: 56%

## CC(C)OC(=O)[C@H](C)N[P@@](=O)(CO[C@H](C)Cn1cnc2c(N)ncnc21)Oc1ccc(C[C@H](NCCCc2ccccc2)C(=O)CC2CCCC2)cc1
[18]
  Drug metabolism: Metabolite_Detected
[19]
  Drug metabolism: Metabolite_Detected
[20]
  Drug metabolism: Metabolite_Detected
[1]
  pEC50: 8.02
[2]
  Activity: 10.2 pmol/min/mg
[3]
  CC50 at 120 h: 7300 nM
[5]
  Drug uptake: 50.12 pmol
[21]
  Drug metabolism: Metabolite_Detected
[6]
  Drug uptake: 266.22 pmol
[22]
  Drug metabolism: Metabolite_Detected

## CC(C)OC(=O)OCOP(=O)(CO[C@H](C)Cn1cnc2c(N)ncnc21)OCOC(=O)OC(C)C [TENOFOVIR DISOPROXIL FUMARATE]
[8]
  selectivity ratio: 656
[17]
  pEC50: 7.30

## CC(C)OC(=O)[C@H](C)N[P@](=O)(CO[C@H](C)Cn1cnc2c(N)ncnc21)Oc1ccc(C[C@H](NC(=O)OCc2ccccc2)C(=O)OC2CCCC2)cc1.Cl
[16]
  solubility at 24 h, 25 µM: 210 µM

## CC(C)OC(=O)[C@H](C)N[P@@](=O)(CO[C@H](C)Cn1cnc2c(N)ncnc21)Oc1ccc(C[C@H](NC(=O)OCc2ccccc2)C(=O)CC2CCCC2)cc1
[1]
  pEC50: 9.82
[2]
  Activity: 30.3 pmol/min/mg
[3]
  CC50 at 120 h: 7600 nM
[4]
  pEC50: 8.47
[5]
  Drug uptake: 78.88 pmol
[6]
  Drug uptake: 248 pmol
[7]
  CC50 at 72 h: > 50000 nM

## CC(C)OC(=O)[C@H](C)N[P@](=O)(CO[C@H](C)Cn1cnc2c(N)ncnc21)Oc1ccccc1.CC(C)OC(=O)[C@H](C)N[P@](=O)(CO[C@H](C)Cn1cnc2c(N)ncnc21)Oc1ccccc1.O=C(O)/C=C/C(=O)O [TENOFOVIR ALAFENAMIDE FUMARATE]
[1]
  pEC50: 8.19
[2]
  Activity: 25.8 pmol/min/mg
[3]
  CC50 at 120 h: 35000 nM
[8]
  selectivity ratio: 5470
[4]
  pEC50: 8.28
[5]
  Drug uptake: 21.19 pmol
[14]
  half-life at 5 µM: 3.45 h
[9]
  remaining at 0.5 h, 5 µM: 70%
[6]
  Drug uptake: 0.3 pmol
[17]
  pEC50: 8.30
[10]
  remaining at 5 µM: 44%
[7]
  CC50 at 72 h: > 50000 nM
[16]
  solubility at 24 h, 25 µM: > 1000 µM
